{
  "source": "patent US8987286B2",
  "about": "“Substituted pyrimido[1,2-b]indazoles and their use as modulators of the Pi3K/Akt pathway” (Bayer Intellectual Property GmbH, priority 2010, dated 2015)",
  "note": "Where a name gives a salt, the structure may show the parent alone.",
  "data": [
    {"molecular_target": "Akt1 (Homo sapiens (Human), UniProt P31749)", "sequence (P31749 whole entry)": "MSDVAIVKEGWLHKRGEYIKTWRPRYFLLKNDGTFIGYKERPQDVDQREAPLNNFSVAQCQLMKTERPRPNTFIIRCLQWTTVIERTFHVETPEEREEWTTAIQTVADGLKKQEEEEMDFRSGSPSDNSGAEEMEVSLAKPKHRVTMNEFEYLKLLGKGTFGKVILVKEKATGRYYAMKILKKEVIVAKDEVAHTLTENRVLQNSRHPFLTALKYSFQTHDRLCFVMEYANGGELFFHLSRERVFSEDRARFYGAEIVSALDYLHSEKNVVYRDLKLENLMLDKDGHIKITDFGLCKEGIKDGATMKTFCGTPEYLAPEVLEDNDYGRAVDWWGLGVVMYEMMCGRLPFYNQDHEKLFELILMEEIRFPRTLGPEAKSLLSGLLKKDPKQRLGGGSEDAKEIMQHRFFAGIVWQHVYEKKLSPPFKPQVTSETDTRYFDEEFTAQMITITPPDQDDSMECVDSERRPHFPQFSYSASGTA", "assay": "Akt1 kinase assay (Akt1 TR-FRET assay)", "type": "biochemical", "conditions": "His-tagged human recombinant full-length Akt1, 10 μM ATP, 1 μM peptide substrate", "source_text": "Biological Assay 1.0: Akt1 Kinase Assay\nAkt1 inhibitory activity of compounds of the present invention was quantified employing the Akt1 TR-FRET assay as described in the following paragraphs.\nHis-tagged human recombinant kinase full-length Akt1 expressed in insect cells was purchased form Invitrogen (part number PV 3599). As substrate for the kinase reaction the biotinylated peptide biotin-Ahx-KKLNRTLSFAEPG (C-terminus in amide form) was used which can be purchased e.g. from the company Biosynthan GmbH (Berlin-Buch, Germany).\nFor the assay 50 nl of a 100 fold concentrated solution of the test compound in DMSO was pipetted into a black low volume 384 well microtiter plate (Greiner Bio-One, Frickenhausen, Germany), 2 μl of a solution of Akt1 in assay buffer [50 mM TRIS/HCl pH 7.5, 5 mM MgCl2, 1 mM dithiothreitol, 0.02% (v/v) Triton X-100 (Sigma)] were added and the mixture was incubated for 15 min at 22° C. to allow pre-binding of the test compounds to the enzyme before the start of the kinase reaction. Then the kinase reaction was started by the addition of 3 μl of a solution of adenosine-tri-phosphate (ATP, 16.7 μM=>final conc. in the 5 μl assay volume is 10 μM) and substrate (1.67 μM=>final conc. in the 5 μl assay volume is 1 μM) in assay buffer and the resulting mixture was incubated for a reaction time of 60 min at 22° C. The concentration of Akt1 in the assay was adjusted depending of the activity of the enzyme lot and was chosen appropriate to have the assay in the linear range, typical enzyme concentrations were in the range of about 0.05 ng/μl (final conc. in the 5 μl assay volume).\nThe reaction was stopped by the addition of 5 μl of a solution of HTRF detection reagents (200 nM streptavidine-XL665 [Cisbio] and 1.5 nM anti-phosho-Serine antibody [Millipore, cat. #35-001] and 0.75 nM LANCE Eu-W 1024 labeled anti-mouse IgG antibody [Perkin Elmer]) in an aqueous EDTA-solution (100 mM EDTA, 0.1% (w/v) bovine serum albumin in 50 mM HEPES/NaOH pH 7.5).\nThe resulting mixture was incubated 1 h at 22° C. to allow the binding of the biotinylated phosphorylated peptide to the streptavidine-XL665 and the antibodies. Subsequently the amount of phosphorylated substrate was evaluated by measurement of the resonance energy transfer from the anti-mouse-IgG-Eu-Chelate to the streptavidine-XL665. Therefore, the fluorescence emissions at 620 nm and 665 nm after excitation at 350 nm was measured in a HTRF reader, e.g. a Rubystar (BMG Labtechnologies, Offenburg, Germany) or a Viewlux (Perkin-Elmer). The ratio of the emissions at 665 nm and at […] was taken as the measure for the amount of phosphorylated substrate. The data were normalised (enzyme reaction without inhibitor=0% inhibition, all other assay components but no enzyme=100% inhibition).", "units": {"IC50": "nM"}, "values": [
      {"molecule": "NC1(c2ccc(-c3nc4c5cc(F)ccc5nn4c(NC4CC4)c3-c3ccccc3)cc2)CCC1", "note": "[Example 2, 2-[4-(1-Aminocyclobutyl)phenyl]-N-cyclopropyl-9-fluoro-3-phenylpyrimido[1,2-b]indazol-4-amine]", "IC50": 528},
      {"molecule": "CNc1c(-c2ccccc2)c(-c2ccc(C3(N)CCC3)cc2)nc2c3cc(F)ccc3nn12", "note": "[Example 3, 2-[4-(1-Aminocyclobutyl)phenyl]-9-fluoro-N-methyl-3-phenylpyrimido[1,2-b]indazol-4-amine]", "IC50": 2630},
      {"molecule": "N#Cc1cccc(-c2ccc3c(c2)nn2cc(-c4ccccc4)c(-c4ccc(C5(N)CCC5)cc4)nc32)c1", "note": "[Example 4, 3-{2-[4-(1-Aminocyclobutyl)phenyl]-3-phenylpyrimido[1,2-b]indazol-8-yl}-benzonitrile]", "IC50": 140},
      {"molecule": "CS(=O)(=O)c1ccc(-c2ccc3c(c2)nn2cc(-c4ccccc4)c(-c4ccc(C5(N)CCC5)cc4)nc32)cc1", "note": "[Example 4.1, 1-{4-[8-(4-Mesylphenyl)-3-phenylpyrimido[1,2-b]indazol-2-yl]-phenyl}cyclobutylamine]", "IC50": 59},
      {"molecule": "NC1(c2ccc(-c3nc4c5ccc(-c6ccc(F)cc6)cc5nn4cc3-c3ccccc3)cc2)CCC1", "note": "[Example 4.2, 1-{4-[8-(4-Fluorophenyl)-3-phenylpyrimido[1,2-b]indazol-2-yl]-phenyl}cyclobutylamine]", "IC50": 229},
      {"molecule": "NC1(c2ccc(-c3nc4c5ccc(Br)cc5nn4cc3-c3ccccc3)cc2)CCC1", "note": "[Example 4.3, 1-[4-(8-Bromo-3-phenylpyrimido[1,2-b]indazol-2-yl)phenyl]cyclobutylamine hydrochloride]", "IC50": 87},
      {"molecule": "NC1(c2ccc(-c3nc4c5ccc(-c6ccc(F)c(CO)c6)cc5nn4cc3-c3ccccc3)cc2)CCC1", "note": "[Example 4.4, 5-{2-[4-(1-Aminocyclobutyl)phenyl]-3-phenylpyrimido[1,2-b]indazol-8-yl}-2-fluorobenzyl alcohol]", "IC50": 43},
      {"molecule": "NC1(c2ccc(-c3nc4c5ccc(-c6ccc(F)c(O)c6)cc5nn4cc3-c3ccccc3)cc2)CCC1", "note": "[Example 4.5, 5-{2-[4-(1-Aminocyclobutyl)phenyl]-3-phenylpyrimido[1,2-b]indazol-8-yl}-2-fluorophenol formiate]", "IC50": 35},
      {"molecule": "COc1cc(-c2ccc3c(c2)nn2cc(-c4ccccc4)c(-c4ccc(C5(N)CCC5)cc4)nc32)ccc1F", "note": "[Example 4.6, 1-{4-[8-(4-Fluoro-3-methoxyphenyl)-3-phenylpyrimido[1,2-b]indazol-2-yl]phenyl}cyclobutylamine]", "IC50": 458},
      {"molecule": "CS(=O)(=O)c1cccc(-c2ccc3c(c2)nn2cc(-c4ccccc4)c(-c4ccc(C5(N)CCC5)cc4)nc32)c1", "note": "[Example 4.7, 1-{4-[8-(3-Mesylphenyl)-3-phenylpyrimido[1,2-b]indazol-2-yl]phenyl}cyclobutylamine formiate]", "IC50": 25},
      {"molecule": "COC(=O)c1ccc2c(c1)nn1cc(-c3ccccc3)c(-c3ccc(C4(N)CCC4)cc3)nc21", "note": "[Example 4.8, 2-[4-(1-Aminocyclobutyl)phenyl]-3-phenylpyrimido[1,2-b]indazole-8-carboxylic acid methyl ester]", "IC50": 111},
      {"molecule": "NC(=O)c1cccc(-c2ccc3c(c2)nn2cc(-c4ccccc4)c(-c4ccc(C5(N)CCC5)cc4)nc32)c1", "note": "[Example 4.9, 3-{2-[4-(1-Aminocyclobutyl)phenyl]-3-phenylpyrimido[1,2-b]indazol-8-yl}benzamide]", "IC50": 16},
      {"molecule": "NC(=O)c1ccc(-c2ccc3c(c2)nn2cc(-c4ccccc4)c(-c4ccc(C5(N)CCC5)cc4)nc32)cc1", "note": "[Example 4.10, 4-{2-[4-(1-Aminocyclobutyl)phenyl]-3-phenylpyrimido[1,2-b]indazol-8-yl}benzamide]", "IC50": 21},
      {"molecule": "NC1(c2ccc(-c3nc4c5ccc(-c6cn[nH]c6)cc5nn4cc3-c3ccccc3)cc2)CCC1", "note": "[Example 4.11, 1-{4-[3-Phenyl-8-(1H-pyrazol-4-yl)pyrimido[1,2-b]indazol-2-yl]-phenyl}cyclobutylamine]", "IC50": 17},
      {"molecule": "NC1(c2ccc(-c3nc4c5ccc(-c6ccc(O)nc6)cc5nn4cc3-c3ccccc3)cc2)CCC1", "note": "[Example 4.12, 5-{2-[4-(1-Aminocyclobutyl)phenyl]3-phenylpyrimido[1,2-b]indazol-8-yl}pyridin-2-ol]", "IC50": 14},
      {"molecule": "COC(=O)c1ccc(-c2ccc3c(c2)nn2cc(-c4ccccc4)c(-c4ccc(C5(N)CCC5)cc4)nc32)cn1", "note": "[Example 4.13, 5-{2-[4-(1-Aminocyclobutyl)phenyl]-3-phenylpyrimido[1,2-b]indazol-8-yl}pyridine-2-carboxylic acid methyl ester]", "IC50": 23},
      {"molecule": "Cc1ccc(-c2ccc3nn4cc(-c5ccccc5)c(-c5ccc(C6(N)CCC6)cc5)nc4c3c2)cc1", "note": "[Example 5.1, 1-[4-(3-Phenyl-9-p-tolylpyrimido[1,2-b]indazol-2-yl)phenyl]cyclobutylamine]", "IC50": 120},
      {"molecule": "COC(=O)c1cccc(-c2ccc3nn4cc(-c5ccccc5)c(-c5ccc(C6(N)CCC6)cc5)nc4c3c2)c1", "note": "[Example 5.2, 3-{2-[4-(1-Aminocyclobutyl)phenyl]-3-phenylpyrimido[1,2-b]indazol-9-yl}benzoic acid methyl ester]", "IC50": 130},
      {"molecule": "NC1(c2ccc(-c3nc4c5cc(Br)ccc5nn4cc3-c3ccccc3)cc2)CCC1", "note": "[Example 6.1, 1-[4-(9-Bromo-3-phenylpyrimido[1,2-b]indazol-2-yl)phenyl]cyclobutylamine]", "IC50": 41},
      {"molecule": "N#Cc1ccc(-c2ccc3nn4cc(-c5ccccc5)c(-c5ccc(C6(N)CCC6)cc5)nc4c3c2)cc1", "note": "[Example 6.2, 4-{2-[4-(1-Aminocyclobutyl)phenyl]-3-phenylpyrimido[1,2-b]indazol-9-yl}benzonitrile formiate]", "IC50": 97},
      {"molecule": "NC1(c2ccc(-c3nc4c5cc(-c6cccc(CO)c6)ccc5nn4cc3-c3ccccc3)cc2)CCC1", "note": "[Example 6.3, 3-{2-[4-(1-Aminocyclobutyl)phenyl]-3-phenylpyrimido[1,2-b]indazol-9-yl}benzyl alcohol formiate]", "IC50": 16},
      {"molecule": "NC1(c2ccc(-c3nc4c5cc(-c6ccc(CO)cc6)ccc5nn4cc3-c3ccccc3)cc2)CCC1", "note": "[Example 6.4, 4-{2-[4-(1-Aminocyclobutyl)phenyl]-3-phenylpyrimido[1,2-b]indazol-9-yl}benzyl alcohol formiate]", "IC50": 18},
      {"molecule": "NC1(c2ccc(-c3nc4c5cc(-c6ccc(S(N)(=O)=O)cc6)ccc5nn4cc3-c3ccccc3)cc2)CCC1", "note": "[Example 6.5, 4-{2-[4-(1-Aminocyclobutyl)phenyl]-3-phenylpyrimido[1,2-b]indazol-9-yl}benzenesulfonamide formiate]", "IC50": 31},
      {"molecule": "NC1(c2ccc(-c3nc4c5cc(-c6ccc(F)c(CO)c6)ccc5nn4cc3-c3ccccc3)cc2)CCC1", "note": "[Example 6.6, 5-{2-[4-(1-Aminocyclobutyl)phenyl]-3-phenylpyrimido[1,2-b]indazol-9-yl}-2-fluorobenzyl alcohol]", "IC50": 10},
      {"molecule": "NC1(c2ccc(-c3nc4c5cc(-c6cn[nH]c6)ccc5nn4cc3-c3ccccc3)cc2)CCC1", "note": "[Example 6.7, 1-{4-[3-Phenyl-9-(1H-pyrazol-4-yl)pyrimido[1,2-b]indazol-2-yl]phenyl}-cyclobutylamine]", "IC50": 19},
      {"molecule": "NC1(c2ccc(-c3nc4c5cccc(Br)c5nn4cc3-c3ccccc3)cc2)CCC1", "note": "[Example 8.1, 1-[4-(7-Bromo-3-phenylpyrimido[1,2-b]indazol-2-yl)phenyl]cyclobutylamine hydrochloride]", "IC50": 170},
      {"molecule": "NC1(c2ccc(-c3nc4c5cccc(-c6ccc(F)cc6)c5nn4cc3-c3ccccc3)cc2)CCC1", "note": "[Example 8.2, 1-{4-[7-(4-Fluorophenyl)-3-phenylpyrimido[1,2-b]indazol-2-yl]-phenyl}cyclobutylamine]", "IC50": 5600},
      {"molecule": "NC1(c2ccc(-c3nc4c5cccc(-c6ccc(CO)cc6)c5nn4cc3-c3ccccc3)cc2)CCC1", "note": "[Example 8.3, 4-{2-[4-(1-Aminocyclobutyl)phenyl]-3-phenylpyrimido[1,2-b]indazol-7-yl}benzyl alcohol formiate]", "IC50": 720},
      {"molecule": "CS(=O)(=O)c1cccc(-c2cccc3c2nn2cc(-c4ccccc4)c(-c4ccc(C5(N)CCC5)cc4)nc32)c1", "note": "[Example 8.4, 1-{4-[7-(3-Mesylphenyl)-3-phenylpyrimido[1,2-b]indazol-2-yl]-phenyl}cyclobutylamine]", "IC50": 17000}
    ]}
  ]
}
